Patent US7041677B2, “Use of monochloroflosequinan in the treatment of sexual dysfunction” (R.T. Alamo Ventures I, LLC, priority 2002, dated 2006)

Key:
PDE3 = target: T1, PDE3 (Homo sapiens, UniProt Q14432); assay: PDE3 enzyme inhibition assay; assay type: biochemical; conditions: 1% DMSO vehicle
T1 construct: PDE3 partially purified from human platelets was used; from tissue; host or cells: human platelets
From the text: In this example, a racemic mixture of monochloroflosequinan and the sulfone derivative of monochloroflosequinan were independently subjected to biochemical enzyme assays to determine their respective percent inhibition of a variety of phosphodiesterases (PDE1-PDE6). The methods used have been adapted from those described in the scientific literature, see Hidaka and Asano “Human blood platelet 3′:5′ cyclic nucleotide phosphodiesterase. Isolation of low-Km and high Km phosphodiesterase.” Biochem. Biophys. Acta 429:485 (1976); Nicholoson et al. “Differential modulation of tissue function and therapeutic potential of selective inhibitors of cyclic nucleotide phosphodiesterase isoenzymes” Trends Pharmacol. Sci. 12:19 (1991); Cortijo et al. “Investigation into the role of phosphodiesterase IV in bronchorelaxation, including studies with hyman bronchus.” Br. J. Pharmacol. 108:562 (1993); Baehr et al. “Isolation and characterization of cGMP phosphodiesterase from bovine rod outer segments.” J. Biol. Chem. 254:11669 (1979) and Gillespie and Beavo “Inhibition and stimulation of photoreceptor phosphodiesterase by dipyridamole and M&B 22,948” Molecular Pharm. 36:773 (1989). A brief summary of the conditions for each enzyme assay is provided below: • PDE1: PDE1 partially purified from bovine heart was used. The compounds were independently incubated with 13 μg PDE1 enzyme, 1.01 μM [^3H]cAMP+cAMP and CaCl2/calmodulin in Tris buffer pH 7.5 for 20 minutes at either 25° C. or 30° C. The reaction was terminated by boiling for 2 minutes, and the resulting AMP was converted to adenosine by addition of 10 mg/ml snake venom nucleotidase and further incubation at 30° C. for 10 minutes. Unhydrolyzed cAMP was bound to AGI-X2 resin, and the remaining [^3H]adenosine in the aqueous phase was quantitated by scintillation counting. • PDE2: PDE2 partially purified from human platelets was used. The compounds were independently incubated with 23 μg PDE2 enzyme, 25.1 μM [^3H]cAMP+cAMP in Tris buffer pH 7.5 for 20 minutes at either 25° C. or 30° C. […] Unhydrolyzed cAMP was bound to AGI-X2 resin, and the remaining [^3H]adenosine in the aqueous phase was quantitated by scintillation counting. • PDE3: PDE3 partially purified from human platelets was used. […] Unhydrolyzed cAMP was bound to AGI-X2 resin, and the remaining [^3H]adenosine in the aqueous phase was quantitated by scintillation counting. • PDE4: PDE4 partially purified from human U-937 pronocytic cells was used. […] Unhydrolyzed cAMP was bound to AGI-X2 resin, and the remaining [^3H]adenosine in the aqueous phase was quantitated by scintillation counting. • PDE5: PDE5 partially purified from human platelets was used. […]

PDE1 = target: T2, PDE1 (Bos taurus, UniProt P14100); assay: PDE1 enzyme inhibition assay; assay type: biochemical, bovine; conditions: 1% DMSO vehicle
T2 construct: PDE1 partially purified from bovine heart was used; from tissue; host or cells: bovine heart
From the text: In this example, a racemic mixture of monochloroflosequinan and the sulfone derivative of monochloroflosequinan were independently subjected to biochemical enzyme assays to determine their respective percent inhibition of a variety of phosphodiesterases (PDE1-PDE6). The methods used have been adapted from those described in the scientific literature, see Hidaka and Asano “Human blood platelet 3′:5′ cyclic nucleotide phosphodiesterase. Isolation of low-Km and high Km phosphodiesterase.” Biochem. Biophys. Acta 429:485 (1976); Nicholoson et al. “Differential modulation of tissue function and therapeutic potential of selective inhibitors of cyclic nucleotide phosphodiesterase isoenzymes” Trends Pharmacol. Sci. 12:19 (1991); Cortijo et al. “Investigation into the role of phosphodiesterase IV in bronchorelaxation, including studies with hyman bronchus.” Br. J. Pharmacol. 108:562 (1993); Baehr et al. “Isolation and characterization of cGMP phosphodiesterase from bovine rod outer segments.” J. Biol. Chem. 254:11669 (1979) and Gillespie and Beavo “Inhibition and stimulation of photoreceptor phosphodiesterase by dipyridamole and M&B 22,948” Molecular Pharm. 36:773 (1989). A brief summary of the conditions for each enzyme assay is provided below: • PDE1: PDE1 partially purified from bovine heart was used. The compounds were independently incubated with 13 μg PDE1 enzyme, 1.01 μM [^3H]cAMP+cAMP and CaCl2/calmodulin in Tris buffer pH 7.5 for 20 minutes at either 25° C. or 30° C. The reaction was terminated by boiling for 2 minutes, and the resulting AMP was converted to adenosine by addition of 10 mg/ml snake venom nucleotidase and further incubation at 30° C. for 10 minutes. Unhydrolyzed cAMP was bound to AGI-X2 resin, and the remaining [^3H]adenosine in the aqueous phase was quantitated by scintillation counting. • PDE2: PDE2 partially purified from human platelets was used. The compounds were independently incubated with 23 μg PDE2 enzyme, 25.1 μM [^3H]cAMP+cAMP in Tris buffer pH 7.5 for 20 minutes at either 25° C. or 30° C. The reaction was terminated by boiling for 2 minutes, and the resulting AMP was converted to adenosine by addition of 10 mg/ml snake venom nucleotidase and further incubation at 30° C. for 10 minutes. Unhydrolyzed cAMP was bound to AGI-X2 resin, and the remaining [^3H]adenosine in the aqueous phase was quantitated by scintillation counting. • PDE3: PDE3 partially purified from human platelets was used. The compounds were independently incubated with 13 ug PDE3 enzyme and 1.01 μM [^3H]cAMP+cAMP in Tris buffer pH 7.5 for 20 minutes at either 25° C. or 30° C. The reaction was terminated by boiling for 2 minutes, and the resulting AMP was converted to adenosine by addition of 10 mg/ml snake venom nucleotidase and further incubation at 30° C. for 10 minutes. Unhydrolyzed cAMP was bound to AGI-X2 resin, and the remaining [^3H]adenosine in the aqueous phase was quantitated by scintillation counting. • PDE4: PDE4 partially purified from human U-937 pronocytic cells was used. The compounds were independently incubated with 20 μg PDE4 enzyme and 1.01 μM [^3H]cAMP+cAMP in Tris buffer pH 7.5 for 20 minutes at either 25° C. or 30° C. […] Unhydrolyzed cAMP was bound to AGI-X2 resin, and the remaining [^3H]adenosine in the aqueous phase was quantitated by scintillation counting. • PDE5: PDE5 partially purified from human platelets was used. […]

PDE5 = target: T3, PDE5 (Homo sapiens, UniProt O76074); assay: PDE5 enzyme inhibition assay; assay type: biochemical; conditions: 25° C., 1% DMSO vehicle
T3 construct: PDE5 partially purified from human platelets was used; from tissue; host or cells: human platelets
From the text: In this example, a racemic mixture of monochloroflosequinan and the sulfone derivative of monochloroflosequinan were independently subjected to biochemical enzyme assays to determine their respective percent inhibition of a variety of phosphodiesterases (PDE1-PDE6). The methods used have been adapted from those described in the scientific literature, see Hidaka and Asano “Human blood platelet 3′:5′ cyclic nucleotide phosphodiesterase. Isolation of low-Km and high Km phosphodiesterase.” Biochem. Biophys. […] Unhydrolyzed cAMP was bound to AGI-X2 resin, and the remaining [^3H]adenosine in the aqueous phase was quantitated by scintillation counting. • PDE2: PDE2 partially purified from human platelets was used. […] Unhydrolyzed cAMP was bound to AGI-X2 resin, and the remaining [^3H]adenosine in the aqueous phase was quantitated by scintillation counting. • PDE3: PDE3 partially purified from human platelets was used. […] Unhydrolyzed cAMP was bound to AGI-X2 resin, and the remaining [^3H]adenosine in the aqueous phase was quantitated by scintillation counting. • PDE4: PDE4 partially purified from human U-937 pronocytic cells was used. […] Unhydrolyzed cAMP was bound to AGI-X2 resin, and the remaining [^3H]adenosine in the aqueous phase was quantitated by scintillation counting. • PDE5: PDE5 partially purified from human platelets was used. […]

T1 sequence (Q14432 whole entry): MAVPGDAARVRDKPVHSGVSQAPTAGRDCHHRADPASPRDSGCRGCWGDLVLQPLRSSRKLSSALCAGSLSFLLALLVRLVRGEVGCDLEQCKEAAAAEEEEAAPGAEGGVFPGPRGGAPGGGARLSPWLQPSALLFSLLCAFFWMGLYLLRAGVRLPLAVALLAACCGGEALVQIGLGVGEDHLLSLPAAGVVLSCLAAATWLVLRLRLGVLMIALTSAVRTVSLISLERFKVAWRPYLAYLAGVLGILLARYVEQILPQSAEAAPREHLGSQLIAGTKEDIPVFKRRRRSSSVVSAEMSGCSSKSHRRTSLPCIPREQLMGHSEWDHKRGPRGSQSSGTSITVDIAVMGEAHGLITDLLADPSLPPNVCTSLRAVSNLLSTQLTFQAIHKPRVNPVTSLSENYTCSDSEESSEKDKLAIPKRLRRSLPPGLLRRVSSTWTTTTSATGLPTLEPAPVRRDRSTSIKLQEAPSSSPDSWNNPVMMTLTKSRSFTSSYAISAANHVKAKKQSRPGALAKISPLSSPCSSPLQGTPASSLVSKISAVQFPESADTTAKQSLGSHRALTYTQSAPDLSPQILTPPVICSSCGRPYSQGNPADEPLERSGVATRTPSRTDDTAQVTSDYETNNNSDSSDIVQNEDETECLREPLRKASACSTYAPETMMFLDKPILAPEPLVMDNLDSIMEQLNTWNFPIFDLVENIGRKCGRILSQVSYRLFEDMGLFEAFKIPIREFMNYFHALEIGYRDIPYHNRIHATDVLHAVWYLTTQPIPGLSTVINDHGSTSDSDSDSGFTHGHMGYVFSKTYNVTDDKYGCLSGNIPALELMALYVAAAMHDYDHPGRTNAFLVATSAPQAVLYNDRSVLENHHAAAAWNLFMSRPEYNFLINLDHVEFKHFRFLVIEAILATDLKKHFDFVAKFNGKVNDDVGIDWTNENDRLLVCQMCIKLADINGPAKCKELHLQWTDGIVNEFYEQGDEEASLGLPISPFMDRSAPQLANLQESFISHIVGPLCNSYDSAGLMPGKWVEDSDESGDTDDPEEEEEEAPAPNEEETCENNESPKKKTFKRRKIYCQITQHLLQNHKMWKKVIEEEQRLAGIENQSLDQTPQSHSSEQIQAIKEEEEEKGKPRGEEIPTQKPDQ

Question: With `Cn1cc([S+]([O-])CCl)c(=O)c2ccc(F)cc21` (racemic) [monochloroflosequinan, 3-chloromethylsulfinyl-7-fluoro-1-methyl-4-quinolone] as the compound, how does the “inhibition of PDE3” value (PDE3; 100 uM, 30° C.) read?
Answer: Significant inhibition

Question: And the “inhibition of PDE1” value (PDE1; 100 uM, 30° C.)?
Answer: Significant inhibition

Question: With `Cn1cc([S@+]([O-])CCl)c(=O)c2ccc(F)cc21` (single isomer, unassigned) [(+)-enantiomer of monochloroflosequinan] as the compound, how does the “inhibition of PDE3” value (PDE3; 200 μM, 25° C.) read?
Answer: greater than 50%

Question: What about the “inhibition of PDE5” value (PDE5; 200 μM) of the same compound?
Answer: greater than 50%

Question: What about the “inhibition of PDE1” value (PDE1; 200 μM, 25° C.) of the same compound?
Answer: greater than 50%

Question: Which “inhibition of PDE3” value (PDE3; 200 μM, 25° C.) does the source give for `Cn1cc([S@@+]([O-])CCl)c(=O)c2ccc(F)cc21` (single isomer, unassigned) [(−)-enantiomer of monochloroflosequinan] here?
Answer: greater than 50%

Question: What about the “inhibition of PDE1” value (PDE1; 200 μM, 25° C.) of the same compound?
Answer: greater than 50%

Question: Which results are given for `Cn1cc([S+]([O-])C(Cl)Cl)c(=O)c2ccc(F)cc21` (stereo not shown) [dichloroflosequinan, 3-dichloromethylsulfinyl-7-fluoro-1-methyl-4-quinolone]?
Answer: inhibition of PDE3 (PDE3; varying concentrations, 25° C.): greater than 50%; inhibition of PDE5 (PDE5; varying concentrations): greater than 50%; inhibition of PDE1 (PDE1; varying concentrations, 25° C.): greater than 50%
